# From article PMC7692337, “Masked Phenolic-Selenium Conjugates: Potent and Selective Antiproliferative Agents Overcoming P-gp Resistance” (Pharmaceuticals, 2020)
# Like-named read-outs stand apart in the source and are kept apart here.
# What was measured:
# WiDr (colon) = assay: Antiproliferative activity, NCI protocol; type: cell-based, human; details: read-out: GI50 WiDr (Colon)
# Description: (§1) Organochalcogen derivatives prepared herein were evaluated in vitro as potential antiproliferative agents, using a panel of six human tumour cell lines: A549 (non-small cell lung), HBL-100 (breast), HeLa (cervix), SW1573 (non-small cell lung), as drug sensitive lines, T-47D (breast) and WiDr (colon) as drug resistant lines. In addition to precursors 2, 6, 7, 13, 14, 17, 19, ebselen and cisplatin (CDDP) were used as reference drugs. […] In both cases, the NCI protocol, with minor modifications, was followed; selected data, including the selectivity index (S.I.) can be found in Table 3 and full data in Supporting Information (Table S1).
# (§2) The in vitro antiproliferative activity was assayed using minor modifications of the protocol of the National Cancer Institute (NCI) of the United States against the six human solid tumor cell and the non-tumor cell lines tested.
# [1] = tested on: SW1573 (non-small cell lung); assay: Antiproliferative activity, NCI protocol; type: cell-based, human
# Description: as §1, §2
# HBL-100 (breast) = assay: Antiproliferative activity, NCI protocol; type: cell-based, human
# Description: as §1, §2
# T-47D (breast) = assay: Antiproliferative activity, NCI protocol; type: cell-based, human; details: read-out: GI50 T-47D (Breast)
# Description: as §1, §2
# [2] = tested on: A549 (non-small cell lung); assay: Antiproliferative activity, NCI protocol; type: cell-based, human
# Description: as §1, §2
# HeLa (cervix) = assay: Antiproliferative activity, NCI protocol; type: cell-based, human
# Description: as §1, §2
# [3] = Free radical scavenging (DPPH method); details: 30 min incubation, absorbance at 515 nm, read-out: EC50 antiradical activity (DPPH)
# Description: In vitro antioxidant properties of key unprotected phenolic derivatives were analyzed using two different methodologies: free radical scavenging capacity, using the DPPH method (2,2-diphenyl-1-picrylhydrazyl), a HAT (hydrogen atom transfer) procedure, widely-used for both natural and synthetic derivatives, and also the capacity for scavenging H2O2, one of the most common ROS in degenerative diseases, including cancer.
# DPPH is a commercially-available stable free radical commonly used for in vitro testing of radical scavenging properties of antioxidants.
# Reported methodology was used with minor modifications. To a 60 µM methanolic DPPH solution (1.17 mL), the antioxidant solution (5–7 different solutions, 30 µL) or solvent (control, 30 µL) were added. After 30 min. of incubation in the dark, absorbance was measured at 515 nm, and EC50 values were calculated.
# [4] = tested on: six human tumour cell lines (A549, HBL-100, HeLa, SW1573, T-47D, WiDr); assay: Antiproliferative activity, panel of six human tumour cell lines; type: cell-based; details: summary over the tested tumour cell lines, highest tested concentration 100 µM
# Description: as §1, §2
# [5] = P-glycoprotein assay, line overexpressing P-gp; type: cell-based, human; details: human, 48 h exposure
# Description: (§3) This assay allows prediction of whether a certain chemotherapeutic agent could develop chemoresistance when behaving as a P-gp substrate, one of the most common efllux-pumps used for the extrusion of cell xenobiotics. For that purpose, a cell line-based assay was used, in particular the lung cancer cell line in its wild type (SW1573), and its variant overexpressing P-gp (Sw1573/Pgp). Moreover, compounds were tested in the presence and in the absence of verapamil, which is known to inhibit P-gp. Chemotherapeutic agents paclitaxel (PTX) and vinblastine (VB) are used herein as reference compounds. In this assay, the resistance factor (Rf) for a certain compound is defined as the ratio of GI50 in the cell line overexpressing P-gp and the wild one (Table 4), high values of Rf denoting that the compound behaves as a P-gp substrate, and thus, chemoresistance through this mechanism will probably take place.
# SW1573/Pgp = assay: P-glycoprotein assay, line overexpressing P-gp; type: cell-based, human; details: ratio between GI50 values in SW1573/PGP and SW1573 cells; for Rf w Verapamil: with verapamil; for Rf w/o Verapamil: without verapamil
# Description: as §3
# SW1573 = assay: P-glycoprotein assay, wild type line; type: cell-based; details: Homo sapiens, 48 h exposure
# Description: as §3
# [6] = Homo sapiens, SW1573, read-out: GI50 SW1573 (Lung)
# [7] = Homo sapiens, HBL-100, read-out: GI50 HBL-100 (Breast)
# [8] = Homo sapiens, A549, read-out: GI50 A549 (Lung)
# [9] = Homo sapiens, HeLa, read-out: GI50 HeLa (Cervix)
# [10] = Homo sapiens, WiDr, drug resistant line
# [11] = Homo sapiens, SW1573, Table S1, read-out: GI50 SW1573 (Lung)
# [12] = Homo sapiens, HBL-100; read-out: GI50 HBL-100 (Breast)
# [13] = Homo sapiens, T47D, drug resistant line
# [14] = Homo sapiens, A549; read-out: GI50 A549 (Lung)
# [15] = Homo sapiens, HeLa; read-out: GI50 HeLa (Cervix)
# [16] = with verapamil (concentration not stated), with verapamil, reference drugs, read-out: GI50 SW1573/PGP w Verapamil
# [17] = with verapamil, reference drugs, read-out: GI50 SW153 w Verapamil
# [18] = without verapamil, reference drugs, read-out: GI50 SW1573 w/o Verapamil
molecule,measurement,setting,value
"N#C[Se]CCC(=O)O [Compound 19, 3-Selenocyanatopropanoic acid]",GI50,"WiDr (colon); Homo sapiens, WiDr",28 ± 4 µM
same,GI50,[1]; [6],> 100 µM
same,GI50,HBL-100 (breast); [7],93 ± 9 µM
same,GI50,"T-47D (breast); Homo sapiens, T47D",36 ± 1 µM
same,GI50,[2]; [8],18 ± 6 µM
same,GI50,HeLa (cervix); [9],32 ± 10 µM
"OCCc1ccc(O)c(O)c1 [HT, hydroxytyrosol, reference compound]",EC50,[3],13.4 ± 0.6 µM
"O=c1c2ccccc2[se]n1-c1ccccc1 [Ebselen, 2-phenyl-1,2-benzoselenazol-3-one, reference compound]",GI50,WiDr (colon); [10],> 100 µM
same,GI50,[1]; [11],28 ± 4 µM
same,GI50,HBL-100 (breast); [12],13 ± 3 µM
same,GI50,T-47D (breast); [13],90 ± 14 µM
same,GI50,[2]; [14],25 ± 9 µM
same,GI50,HeLa (cervix); [15],26 ± 8 µM
"c1cc2c(cc1CCC[Se][Se]CCCc1ccc3c(c1)OCO3)OCO2 [Compound 41, Bis[3-(3’, 4’-methylenedioxyphenyl)propyl]diselenide]","GI50 over the tumour cell lines (range, bound or words)",[4],only a moderate antiproliferative agent
same,GI50,"WiDr (colon); Homo sapiens, WiDr",29 ± 8 µM
same,GI50,[1]; [6],37 ± 15 µM
same,GI50,HBL-100 (breast); [7],93 ± 10 µM
same,GI50,"T-47D (breast); Homo sapiens, T47D",29 ± 5 µM
same,GI50,[2]; [8],32 ± 8 µM
same,GI50,HeLa (cervix); [9],31 ± 8 µM
"CC(=O)O[C@H]1C(=O)[C@@]2(C)[C@H]([C@H](OC(=O)c3ccccc3)[C@]3(O)C[C@H](OC(=O)[C@H](O)[C@@H](NC(=O)c4ccccc4)c4ccccc4)C(C)=C1C3(C)C)[C@]1(OC(C)=O)CO[C@@H]1C[C@@H]2O [PTX, paclitaxel, reference compound]",GI50 at 48 h,[5]; [16],0.0042 ± 0.0009 µM
same,Rf w Verapamil,SW1573/Pgp,2.6
same,Rf w/o Verapamil,SW1573/Pgp,128
same,GI50,SW1573; [17],0.0016 ± 0.0002 µM
same,GI50,SW1573; [18],0.0015 ± 0.0005 µM
"O=C(O)CC[Se][Se]CCC(=O)O [Compound 13, 3,3′-Diselenobispropanoic acid]",GI50,WiDr (colon); [10],5.6 ± 0.6 µM
same,GI50,[1]; [11],> 100 µM
same,GI50,HBL-100 (breast); [12],94 ± 8 µM
same,GI50,T-47D (breast); [13],20 ± 8 µM
same,GI50,[2]; [14],4.1 ± 0.1 µM
same,GI50,HeLa (cervix); [15],18 ± 1 µM
"CC[C@]1(O)C[C@@H]2CN(CCc3c([nH]c4ccccc34)[C@@](C(=O)OC)(c3cc4c(cc3OC)N(C)[C@H]3[C@@](O)(C(=O)OC)[C@H](OC(C)=O)[C@]5(CC)C=CCN6CC[C@]43[C@@H]65)C2)C1 [VB, vinblastine, reference compound]",GI50 at 48 h,[5]; [16],0.001 ± 0.0005 µM
same,Rf w Verapamil,SW1573/Pgp,1.3
same,Rf w/o Verapamil,SW1573/Pgp,2388
same,GI50,SW1573; [17],0.0008 ± 0.0002 µM
same,GI50,SW1573; [18],0.0009 ± 0.0003 µM
3-phenylselenopropanoic acid [Compound 17],GI50,WiDr (colon); drug resistant line,> 100 µM
same,GI50,"[1]; Table S1, read-out: GI50 SW1573 (Lung)",> 100 µM
same,GI50,HBL-100 (breast); read-out: GI50 HBL-100 (Breast),> 100 µM
same,GI50,T-47D (breast); drug resistant line,> 100 µM
same,GI50,[2]; read-out: GI50 A549 (Lung),> 100 µM
same,GI50,HeLa (cervix); read-out: GI50 HeLa (Cervix),> 100 µM
"c1ccc(C[Se]CCc2ccc3c(c2)OCO3)cc1 [Compound 38, 1-Benzylseleno-2-(3’, 4’-methylenedioxyphenyl)ethane]",GI50 at 48 h,"[5]; with verapamil (concentration not stated), with verapamil, read-out: GI50 SW1573/PGP w Verapamil",25 ± 2 µM
same,GI50 at 48 h,"[5]; without verapamil, read-out: GI50 SW1573/PGP w/o Verapamil",29 ± 0.2 µM
same,Rf w Verapamil,SW1573/Pgp,1.6
same,Rf w/o Verapamil,SW1573/Pgp,1.1
same,GI50,"SW1573; with verapamil, read-out: GI50 SW153 w Verapamil",15 ± 3 µM
same,GI50,"SW1573; without verapamil, read-out: GI50 SW1573 w/o Verapamil",27 ± 2 µM
same,GI50,WiDr (colon); [10],14 ± 2 µM
same,GI50,[1]; [11],27 ± 5 µM
same,GI50,HBL-100 (breast); [12],14 ± 3 µM
same,GI50,T-47D (breast); [13],4.7 ± 1.2 µM
same,GI50,[2]; [14],19 ± 2 µM
same,GI50,HeLa (cervix); [15],5.2 ± 1 µM
"O=C(O)CCC[Se][Se]CCCC(=O)O [Compound 14, 4,4′-Diselenobisbutyric acid]",GI50,"WiDr (colon); Homo sapiens, WiDr",54 ± 6 µM
same,GI50,[1]; [6],> 100 µM
same,GI50,HBL-100 (breast); [7],> 100 µM
same,GI50,"T-47D (breast); Homo sapiens, T47D",50 ± 14 µM
same,GI50,[2]; [8],46 ± 14 µM
same,GI50,HeLa (cervix); [9],44 ± 13 µM
"O=C(O)CSSCC(=O)O [Compound 6, Dithiodiacetic acid]",GI50,WiDr (colon); [10],> 100 µM
same,GI50,[1]; [11],> 100 µM
same,GI50,HBL-100 (breast); [12],> 100 µM
same,GI50,T-47D (breast); [13],> 100 µM
same,GI50,[2]; [14],> 100 µM
same,GI50,HeLa (cervix); [15],> 100 µM
"O=C(O)CCSSCCC(=O)O [Compound 7, 3,3′-Dithiobispropionic acid]",GI50,WiDr (colon); [10],> 100 µM
same,GI50,[1]; [11],> 100 µM
same,GI50,HBL-100 (breast); [12],> 100 µM
same,GI50,T-47D (breast); [13],> 100 µM
same,GI50,[2]; [14],> 100 µM
same,GI50,HeLa (cervix); [15],> 100 µM
"O=C(O)CCCSSCCCC(=O)O [Compound 2, 4,4′-Dithiobisbuthyric acid]",GI50,WiDr (colon); [10],> 100 µM
same,GI50,[1]; [11],> 100 µM
same,GI50,HBL-100 (breast); [12],> 100 µM
same,GI50,T-47D (breast); [13],> 100 µM
same,GI50,[2]; [14],> 100 µM
same,GI50,HeLa (cervix); [15],> 100 µM
"O=c1c2ccccc2[se]n1CCc1ccc(O)c(O)c1 [Compound 26, N-[2′-(3′’,4′’-Dihydroxyphenyl)ethyl]-1,2-benzisoselenazole-3(2H)-one]","GI50 over the tumour cell lines (range, bound or words)",[4],moderate antiproliferative properties
same,EC50,[3],7.8 ± 0.2 µM
same,GI50,"WiDr (colon); Homo sapiens, WiDr",30 ± 3 µM
same,GI50,[1]; [6],21 ± 12 µM
same,GI50,HBL-100 (breast); [7],21 ± 4 µM
same,GI50,"T-47D (breast); Homo sapiens, T47D",28 ± 6 µM
same,GI50,[2]; [8],21 ± 7 µM
same,GI50,HeLa (cervix); [9],21 ± 6 µM
"O=C(CCSSCCC(=O)NCCc1ccc(O)c(O)c1)NCCc1ccc(O)c(O)c1 [Compound 9, 3,3′-Dithiobis{N-[2′’-(3′’’,4′’’-dihydroxyphenyl)ethyl]propanamide}]",GI50,"[4]; Homo sapiens, read-out: GI50 over the tumour cell lines (range, bound or words)",< 45 µM
same,EC50,[3],4.2 ± 0.1 µM
same,GI50,WiDr (colon); [10],> 100 µM
same,GI50,[1]; [11],42 ± 6 µM
same,GI50,HBL-100 (breast); [12],31 ± 7 µM
same,GI50,T-47D (breast); [13],45 ± 19 µM
same,GI50,[2]; [14],32 ± 1 µM
same,GI50,HeLa (cervix); [15],28 ± 2 µM
